According to patent US7851474B2, “Dipiperazinyl ketones and related analogues” (Neurogen Corporation, priority 2005, dated 2010):
pKi: −log10 of the molar value.

These compounds were tested against T1, chimeric human H3 receptor (Homo sapiens, UniProt Q9Y5N1, E19D) (assay: Chimeric human H3 receptor GTP binding assay (agonist-stimulated GTP-gamma35S binding, Example 7)). Details: Table II; assay of Example 7; "*" in Ki; read-out: Ki.
T1 construct: made in house; host or cells: Sf9 insect cells (baculovirus infection); P2 membrane preparation
T1 sequence (Q9Y5N1 with tags, fused parts or gaps E19D): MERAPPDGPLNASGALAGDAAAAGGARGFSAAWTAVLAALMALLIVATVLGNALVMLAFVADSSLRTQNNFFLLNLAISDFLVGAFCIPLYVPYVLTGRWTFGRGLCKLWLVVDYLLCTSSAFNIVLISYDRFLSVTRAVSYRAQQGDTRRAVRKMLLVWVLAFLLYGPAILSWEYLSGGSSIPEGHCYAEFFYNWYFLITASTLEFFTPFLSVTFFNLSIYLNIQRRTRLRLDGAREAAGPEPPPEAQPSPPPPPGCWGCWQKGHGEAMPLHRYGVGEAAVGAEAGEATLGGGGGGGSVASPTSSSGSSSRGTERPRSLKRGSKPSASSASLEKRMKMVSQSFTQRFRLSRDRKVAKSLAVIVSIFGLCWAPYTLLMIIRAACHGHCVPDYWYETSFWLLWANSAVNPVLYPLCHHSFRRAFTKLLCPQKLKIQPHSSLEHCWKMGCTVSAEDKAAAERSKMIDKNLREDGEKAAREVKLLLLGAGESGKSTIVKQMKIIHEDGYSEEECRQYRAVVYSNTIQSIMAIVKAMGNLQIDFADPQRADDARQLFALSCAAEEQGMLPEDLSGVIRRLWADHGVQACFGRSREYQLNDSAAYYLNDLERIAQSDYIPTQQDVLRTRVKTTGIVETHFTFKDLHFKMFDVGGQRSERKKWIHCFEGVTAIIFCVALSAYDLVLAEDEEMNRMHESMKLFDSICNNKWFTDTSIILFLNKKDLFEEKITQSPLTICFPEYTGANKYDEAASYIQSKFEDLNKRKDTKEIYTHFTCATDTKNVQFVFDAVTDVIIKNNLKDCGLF
Assay type: biochemical
Procedure, shortened: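 Sf9 membranes co-expressing the chimeric receptor and heterotrimeric G-protein subunits, 35 μg protein per tube, in pH 7.4 Tris buffer with 10 μM GDP. Test compounds at 10^−10 to 10^−6 M with 1 μM histamine, 60 min at room temperature. Filter-bound GTP-gamma^35S read by scintillation; IC50 from non-linear regression of dose-response curves.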

Structure (SMILES) | pKi
O=C(CN1CCN(c2ccc(-c3cc(F)ccc3F)nn2)CC1)N1CCN(C2CCC2)CC1 [Compound 1048, 3-{4-[2-(4-cyclobutylpiperazin-1-yl)-2-oxoethyl]piperazin-1-yl}-6-(2,5-difluorophenyl)pyridazine] | > 6.00
O=C(CN1CCN(c2ccc(-c3ccc(F)c(F)c3)nn2)CC1)N1CCN(C2CCC2)CC1 [Compound 1049, 3-{4-[2-(4-cyclobutylpiperazin-1-yl)-2-oxoethyl]piperazin-1-yl}-6-(3,4-difluorophenyl)pyridazine] | > 6.00
O=C(CN1CCN(c2ccc(-c3cc(Cl)cc(Cl)c3)nn2)CC1)N1CCN(C2CCC2)CC1 [Compound 1050, 3-{4-[2-(4-cyclobutylpiperazin-1-yl)-2-oxoethyl]piperazin-1-yl}-6-(3,5-dichlorophenyl)pyridazine] | > 6.00
O=C(CN1CCN(c2ccc(-c3ccc(Cl)c(Cl)c3)nn2)CC1)N1CCN(C2CCC2)CC1 [Compound 1051, 3-{4-[2-(4-cyclobutylpiperazin-1-yl)-2-oxoethyl]piperazin-1-yl}-6-(3,4-dichlorophenyl)pyridazine] | > 6.00
O=C(CN1CCN(c2ccc(-c3cc(F)cc(F)c3)nn2)CC1)N1CCN(C2CCC2)CC1 [Compound 1052, 3-{4-[2-(4-cyclobutylpiperazin-1-yl)-2-oxoethyl]piperazin-1-yl}-6-(3,5-difluorophenyl)pyridazine] | > 6.00
O=C(CN1CCN(c2ccc(-c3cccc(F)c3F)nn2)CC1)N1CCN(C2CCC2)CC1 [Compound 1053, 3-{4-[2-(4-cyclobutylpiperazin-1-yl)-2-oxoethyl]piperazin-1-yl}-6-(2,3-difluorophenyl)pyridazine] | > 6.00
O=C(CN1CCN(c2ccc(-c3cccc(Cl)c3Cl)nn2)CC1)N1CCN(C2CCC2)CC1 [Compound 1054, 3-{4-[2-(4-cyclobutylpiperazin-1-yl)-2-oxoethyl]piperazin-1-yl}-6-(2,3-dichlorophenyl)pyridazine] | > 6.00
O=C(CN1CCN(c2ccc(-c3ccc(Cl)cc3Cl)nn2)CC1)N1CCN(C2CCC2)CC1 [Compound 1055, 3-{4-[2-(4-cyclobutylpiperazin-1-yl)-2-oxoethyl]piperazin-1-yl}-6-(2,4-dichlorophenyl)pyridazine] | > 6.00
O=C(CN1CCN(c2ccc(-c3ccccc3C(F)(F)F)nn2)CC1)N1CCN(C2CCC2)CC1 [Compound 1056, 3-{4-[2-(4-cyclobutylpiperazin-1-yl)-2-oxoethyl]piperazin-1-yl}-6-[2-(trifluoromethyl)phenyl] pyridazine] | > 6.00
COc1cccc(OC)c1-c1ccc(N2CCN(CC(=O)N3CCN(C4CCC4)CC3)CC2)nn1 [Compound 1057, 3-{4-[2-(4-cyclobutylpiperazin-1-yl)-2-oxoethyl]piperazin-1-yl}-6-(2,6-dimethoxyphenyl) pyridazine] | > 6.00
CC(C)c1ccccc1-c1ccc(N2CCN(CC(=O)N3CCN(C4CCC4)CC3)CC2)nn1 [Compound 1058, 3-{4-[2-(4-cyclobutylpiperazin-1-yl)-2-oxoethyl]piperazin-1-yl}-6-(2-isopropylphenyl) pyridazine] | > 6.00
Cc1cccc(C)c1-c1ccc(N2CCN(CC(=O)N3CCN(C4CCC4)CC3)CC2)nn1 [Compound 1059, 3-{4-[2-(4-cyclobutylpiperazin-1-yl)-2-oxoethyl]piperazin-1-yl}-6-(2,6-dimethylphenyl) pyridazine] | > 6.00
O=C(CN1CCN(c2ccc(-c3cc(Cl)ccc3Cl)nn2)CC1)N1CCN(C2CCC2)CC1 [Compound 1060, 3-{4-[2-(4-cyclobutylpiperazin-1-yl)-2-oxoethyl]piperazin-1-yl}-6-(2,5-dichlorophenyl)pyridazine] | > 6.00
Cc1cc(C)c(-c2ccc(N3CCN(CC(=O)N4CCN(C5CCC5)CC4)CC3)nn2)c(C)c1 [Compound 1061, 3-{4-[2-(4-cyclobutylpiperazin-1-yl)-2-oxoethyl]piperazin-1-yl}-6-mesitylpyridazine] | > 6.00
O=C(CN1CCN(c2ccc(-c3ccc(C(F)(F)F)cc3)nn2)CC1)N1CCN(C2CCC2)CC1 [Compound 1062, 3-{4-[2-(4-cyclobutylpiperazin-1-yl)-2-oxoethyl]piperazin-1-yl}-6-[4-(trifluoromethyl)phenyl] pyridazine] | > 6.00
O=C(CN1CCN(c2ccc(-c3cccc(C(F)(F)F)c3)nn2)CC1)N1CCN(C2CCC2)CC1 [Compound 1063, 3-{4-[2-(4-cyclobutylpiperazin-1-yl)-2-oxoethyl]piperazin-1-yl}-6-[3-(trifluoromethyl)phenyl] pyridazine] | > 6.00
CC1CCCN1C(=O)c1ccc(N2CCN(CC(=O)N3CCN(C4CCC4)CC3)CC2)nn1 (stereo not drawn) [Compound 1064, 3-{4-[2-(4-cyclobutylpiperazin-1-yl)-2-oxoethyl]piperazin-1-yl}-6-[(2-methylpyrrolidin-1-yl)carbonyl]pyridazine] | > 6.00
N#Cc1ccc(-c2cccc(N3CCN(CC(=O)N4CCN(C5CCC5)CC4)CC3)c2)cc1 [Compound 1065, 3′-{4-[2-(4-cyclobutylpiperazin-1-yl)-2-oxoethyl]piperazin-1-yl}biphenyl-4-carbonitrile] | > 6.00
CN(C(=O)c1cccc(N2CCN(CC(=O)N3CCN(C4CCC4)CC3)CC2)c1)C1CCCCC1 [Compound 1068, 3-{4-[2-(4-cyclobutylpiperazin-1-yl)-2-oxoethyl]piperazin-1-yl}-N-cyclohexyl-N-methylbenzamide] | > 6.00
CCN(C(=O)c1cccc(N2CCN(CC(=O)N3CCN(C4CCC4)CC3)CC2)c1)C1CCCCC1 [Compound 1069, 3-{4-[2-(4-cyclobutylpiperazin-1-yl)-2-oxoethyl]piperazin-1-yl}-N-cyclohexyl-N-ethylbenzamide] | > 6.00
O=C(NC1CCCCC1)c1cccc(N2CCN(CC(=O)N3CCN(C4CCC4)CC3)CC2)c1 [Compound 1079, 3-{4-[2-(4-cyclobutylpiperazin-1-yl)-2-oxoethyl]piperazin-1-yl}-N-cyclohexylbenzamide] | > 6.00
O=C(NC1CCCCCC1)c1cccc(N2CCN(CC(=O)N3CCN(C4CCC4)CC3)CC2)c1 [Compound 1083, 3-{4-[2-(4-cyclobutylpiperazin-1-yl)-2-oxoethyl]piperazin-1-yl}-N-cycloheptylbenzamide] | > 6.00

Further lines, results first:

pKi | Structure (SMILES)
> 6.00 | CCN(C(=O)c1cccc(N2CCN(CC(=O)N3CCN(C4CCC4)CC3)CC2)c1)C(C)C [Compound 1066, 3-{4-[2-(4-cyclobutylpiperazin-1-yl)-2-oxoethyl]piperazin-1-yl}-N-ethyl-N-isopropylbenzamide]
> 6.00 | CC(C)N(C)C(=O)c1cccc(N2CCN(CC(=O)N3CCN(C4CCC4)CC3)CC2)c1 [Compound 1067, 3-{4-[2-(4-cyclobutylpiperazin-1-yl)-2-oxoethyl]piperazin-1-yl}-N-isopropyl-N-methylbenzamide]
> 6.00 | COCCN(C(=O)c1cccc(N2CCN(CC(=O)N3CCN(C4CCC4)CC3)CC2)c1)C(C)C [Compound 1070, 3-{4-[2-(4-cyclobutylpiperazin-1-yl)-2-oxoethyl]piperazin-1-yl}-N-isopropyl-N-(2-methoxyethyl)benzamide]
> 6.00 | CCC(C)CNC(=O)c1cccc(N2CCN(CC(=O)N3CCN(C4CCC4)CC3)CC2)c1 (stereo not drawn) [Compound 1071, 3-{4-[2-(4-cyclobutylpiperazin-1-yl)-2-oxoethyl]piperazin-1-yl}-N-(2-methylbutyl)benzamide]
> 6.00 | CCCNC(=O)c1cccc(N2CCN(CC(=O)N3CCN(C4CCC4)CC3)CC2)c1 [Compound 1072, 3-{4-[2-(4-cyclobutylpiperazin-1-yl)-2-oxoethyl]piperazin-1-yl}-N-propylbenzamide]
> 6.00 | O=C(NCC1CC1)c1cccc(N2CCN(CC(=O)N3CCN(C4CCC4)CC3)CC2)c1 [Compound 1073, 3-{4-[2-(4-cyclobutylpiperazin-1-yl)-2-oxoethyl]piperazin-1-yl}-N-(cyclopropylmethyl) benzamide]
> 6.00 | CC(C)CNC(=O)c1cccc(N2CCN(CC(=O)N3CCN(C4CCC4)CC3)CC2)c1 [Compound 1074, 3-{4-[2-(4-cyclobutylpiperazin-1-yl)-2-oxoethyl]piperazin-1-yl}-N-isobutylbenzamide]
> 6.00 | CCCCCNC(=O)c1cccc(N2CCN(CC(=O)N3CCN(C4CCC4)CC3)CC2)c1 [Compound 1075, 3-{4-[2-(4-cyclobutylpiperazin-1-yl)-2-oxoethyl]piperazin-1-yl}-N-pentylbenzamide]
> 6.00 | CC(C)CCNC(=O)c1cccc(N2CCN(CC(=O)N3CCN(C4CCC4)CC3)CC2)c1 [Compound 1076, 3-{4-[2-(4-cyclobutylpiperazin-1-yl)-2-oxoethyl]piperazin-1-yl}-N-(3-methylbutyl)benzamide]
> 6.00 | O=C(NCC(F)(F)F)c1cccc(N2CCN(CC(=O)N3CCN(C4CCC4)CC3)CC2)c1 [Compound 1077, 3-{4-[2-(4-cyclobutylpiperazin-1-yl)-2-oxoethyl]piperazin-1-yl}-N-(2,2,2-trifluoroethyl)benzamide]
> 6.00 | O=C(NC1CC1)c1cccc(N2CCN(CC(=O)N3CCN(C4CCC4)CC3)CC2)c1 [Compound 1078, 3-{4-[2-(4-cyclobutylpiperazin-1-yl)-2-oxoethyl]piperazin-1-yl}-N-cyclopropylbenzamide]
> 6.00 | CC(C)NC(=O)c1cccc(N2CCN(CC(=O)N3CCN(C4CCC4)CC3)CC2)c1 [Compound 1080, 3-{4-[2-(4-cyclobutylpiperazin-1-yl)-2-oxoethyl]piperazin-1-yl}-N-isopropylbenzamide]
> 6.00 | O=C(NC1CCCC1)c1cccc(N2CCN(CC(=O)N3CCN(C4CCC4)CC3)CC2)c1 [Compound 1081, 3-{4-[2-(4-cyclobutylpiperazin-1-yl)-2-oxoethyl]piperazin-1-yl}-N-cyclopentylbenzamide]
> 6.00 | CCCC(C)NC(=O)c1cccc(N2CCN(CC(=O)N3CCN(C4CCC4)CC3)CC2)c1 (stereo not drawn) [Compound 1082, 3-{4-[2-(4-cyclobutylpiperazin-1-yl)-2-oxoethyl]piperazin-1-yl}-N-(1-methylbutyl)benzamide]
